Experimental data reported in publication PMC7604171 (Journal of agricultural and food chemistry, 2020).
Values after ≈ are worked out from the molar mass of the structure shown. Values joined by “and” are separate entries in the source; they are usually repeats but may differ in a detail not shown here. Equal entries are not always repeated. Where two headings read alike, the source gives them in different places.

Experiments:
[1] = system: Cal-27 oral squamous cell carcinoma cell line; experiment: MTT anti-proliferation assay in Cal-27; format: cell-based; details: for IC50 anti-proliferation activity: Cal-27, MTT, triplicate; for IC50: Homo sapiens, read-out: IC50 anti-proliferation activity
[2] = system: SCC-9 oral squamous cell carcinoma cell line; experiment: MTT anti-proliferation assay in SCC-9; format: cell-based; details: for IC50 anti-proliferation activity: SCC-9, MTT, treatment period 72 hr, triplicate; for IC50: Homo sapiens, SCC-9, 72 h, read-out: IC50 anti-proliferation activity
[3] = Caco-2 monolayer apical to basolateral transport; format: in vitro ADME; details: human, Caco-2, pH 7.4
in vivo = details: C57BL/6, mouse, iv, 5 mg/kg
[4] = Oral pharmacokinetics of ME in corn oil in mice
[5] = Oral pharmacokinetics of ME nanosuspension in mice; details: for absolute bioavailability (estimated): oral 60 mg/kg ME nanosuspension vs I.V. 5 mg/kg
[6] = I.V. pharmacokinetics of ME nanosuspension in mice
[7] = mouse, in vivo, iv
[8] = system: CYP450 (mouse liver microsomes); experiment: Phase I CYP metabolism of MHNK to HNK in mouse liver microsomes; format: in vitro ADME, C57BL/6 mouse; details: 0.5 µM MHNK, after 60 min, 37 °C
[9] = system: CYP450 (mouse intestinal S9 fraction); experiment: Phase I CYP metabolism of MHNK to HNK in mouse intestinal S9 fraction; format: in vitro ADME, C57BL/6 mouse; details: MHNK 5, 1 and 0.5 µM, 60 min
Caco-2 cell monolayer = experiment: Caco-2 monolayer apical to basolateral transport; format: in vitro ADME; details: ME 0.05 mg/mL in HBSS pH 7.4, 37 °C, n=3
[10] = C57BL/6, mouse, in vivo, po, 60 mg/kg
[11] = C57BL/6, mouse, in vivo, iv, 5 mg/kg
[12] = oral 60 mg ME/kg in corn oil, mouse whole blood, n=5
[13] = oral 60 mg ME/kg in corn oil, n=5
[14] = oral 60 mg ME/kg in nanosuspension, mouse whole blood, n=5
[15] = oral 60 mg ME/kg in nanosuspension, n=5
[16] = I.V. 5 mg ME/kg, mouse whole blood, n=5

Compound `O=c1[nH]cc(F)c(=O)[nH]1` [5-FU, reference compound] has an IC50 anti-proliferation activity ([1]; treatment period 72 hr) of 0.4 ± 0.1 µg/mL (≈ 3.08 µM) and an IC50 anti-proliferation activity [2] of 1.9 ± 0.4 µg/mL (≈ 14.6 µM).
With `C=CCc1ccc(O)c(-c2ccc(O)c(CC=C)c2)c1` [HNK, honokiol] the Papp A→B at 4 h, 0.05 mg/mL [3] was 13.4 ×10⁻⁶ cm/s, the IC50 ([1]; CAL-27, 24 h) was 20.8 ± 1.3 µg/mL (≈ 78.1 µM) and the IC50 ([1]; CAL-27, 48 h) was 12.2 ± 1 µg/mL (≈ 45.8 µM). For the same compound, the IC50 ([1]; CAL-27, 72 h) was 6.6 ± 0.6 µg/mL (≈ 24.8 µM), the IC50 ([1]; CAL-27, 96 h) was 4.2 ± 0.4 µg/mL (≈ 15.8 µM) and the IC50 [2] was 5.5 ± 0.6 µg/mL (≈ 20.7 µM). The AUC(0-inf) (in vivo) was 1150 ± 719 ng·h/mL, the AUC(0-t) (in vivo) was 1150 ± 719 ng·h/mL and the Cmax (in vivo) was 2400 ± 1040 ng/mL. The Half-life (in vivo) was 0.7 ± 0.04 h, the MRT last (in vivo) was 0.6 ± 0.1 h and the clearance (in vivo) was 20 mL/min/kg.
Work on `C=CCc1ccc(O)c(-c2cc(CC=C)ccc2O)c1` [MGN, magnolol] yielded an AUC(0-inf) [4, 10] of 37.8 ± 16.5 ng·h/mL, an AUC(0-t) [4, 10] of 23.1 ± 5.3 ng·h/mL and a Cmax [4, 10] of 9.4 ± 3.3 ng/mL. For the same compound, the Half-life [4, 10] was 3.8 ± 2.3 h, the MRT last [4, 10] was 2.3 ± 0.6 h and the Tmax [4, 10] was 0.9 ± 0.7 h. The AUC(0-inf) [5, 10] was 182 ± 28.8 ng·h/mL, the AUC(0-t) [5, 10] was 176 ± 27.3 ng·h/mL and the Cmax [5, 10] was 29.1 ± 10.4 ng/mL. The Half-life [5, 10] was 5 ± 1.5 h, the MRT last [5, 10] was 5.1 ± 0.6 h and the Tmax [5, 10] was 2.2 ± 1.5 h. The “absolute bioavailability (estimated)” value [5] was < 2%, the AUC(0-inf) [6, 11] was 1230 ± 651 ng·h/mL and the AUC(0-t) [6, 11] was 1230 ± 650 ng·h/mL. The Cmax [6, 11] was 2280 ± 700 ng/mL, the Half-life [6, 11] was 1 ± 0.3 h and the MRT last [6, 11] was 0.8 ± 0.5 h. It also gave a clearance [6, 11] of 13.3 mL/min/kg, a V ([6]; I.V. 5 mg ME/kg, n=5) of 1.0 ± 0.4 L/kg and an IC50 ([1]; CAL-27, 24 h) of 20.7 ± 1.8 µg/mL (≈ 77.7 µM). The IC50 ([1]; CAL-27, 48 h) was 11.9 ± 0.6 µg/mL (≈ 44.7 µM), the IC50 ([1]; CAL-27, 72 h) was 5.1 ± 0.6 µg/mL (≈ 19.1 µM) and the IC50 ([1]; CAL-27, 96 h) was 4 ± 0.8 µg/mL (≈ 15 µM). For the same compound, the IC50 [2] was 7.9 ± 0.4 µg/mL (≈ 29.7 µM).
In the case of `C=CCc1ccc(O)c(-c2cc(CC=C)ccc2OS(=O)(=O)O)c1` [MGN_Sulfate], the Half-life [7] is reported as 2.2 ± 0.7 h and the Tmax [7] is reported as 6 ± 6 min.
In the case of `C=CCc1ccc(O)c(-c2ccc(OC)c(CC=C)c2)c1` [MHNK, 4-O-methylhonokiol], the “AUC0–24” value [4, 12] is reported as 9.6 ± 4.0 ng·h/mL, the “AUC0−∞” value [4, 12] is reported as 10.8 ± 3.0 ng·h/mL and the Cmax [4, 12] is reported as 3.7 ± 0.9 ng/mL. For the same compound, the Tmax [4, 12] was 1.3 ± 0.6 h, the Half-life [4, 13] was 1.4 ± 0.6 h and the “MRT0–24” value [4, 13] was 1.8 ± 0.3 h. The “AUC0–24” value [5, 14] was 79.9 ± 15.8 ^* hr*ng/mL, the “AUC0−∞” value [5, 14] was 86.3 ± 15.7 ^* hr*ng/mL and the Cmax [5, 14] was 14.3 ± 6.6 ng/mL. For the same compound, the Tmax [5, 14] was 3.0 ± 2.0 h, the Half-life [5, 15] was 7.1 ± 2.5 h and the “MRT0–24” value [5, 15] was 5.9 ± 0.7 h. The “absolute bioavailability (estimated)” value [5] was 1.1% and < 2%, the “MHNK metabolized to HNK” value [8] was 51 ± 23.9% and the “AUC0–24” value [6, 16] was 623.2 ± 358.8 ng·h/mL. For the same compound, the “AUC0−∞” value [6, 16] was 631.1 ± 360.0 ng·h/mL, the Cmax [6, 16] was 824.3 ± 309.5 ng/mL and the Half-life [6, 16] was 3 h and 2.9 ± 2.1 h. For the same compound, the CL ([6]; I.V. 5 mg ME/kg, n=5) was 33.3 ± 26.7 mL/min/kg, the “MRT0–24” value ([6]; I.V. 5 mg ME/kg, n=5) was 1.5 ± 0.6 h and the V ([6]; I.V. 5 mg ME/kg, n=5) was 5.5 ± 1.7 L/kg. For the same compound, the “HNK formation from MHNK” value [9] was “no HNK detected”, the “apical to basolateral permeability (Pab)” value (Caco-2 cell monolayer) was 7.7 ± 0.4 × 10^−6 cm/sec and the IC50 anti-proliferation activity ([1]; treatment period 24 hr) was 14.5 ± 0.9 µg/mL (≈ 51.7 µM). For the same compound, the IC50 anti-proliferation activity ([1]; treatment period 48 hr) was 7.7 ± 0.8 µg/mL (≈ 27.5 µM), the IC50 anti-proliferation activity ([1]; treatment period 72 hr) was 5.6 ± 1.4 µg/mL (≈ 20 µM) and the IC50 anti-proliferation activity ([1]; treatment period 96 hr) was 3.2 ± 0.3 µg/mL (≈ 11.4 µM). It also gave an IC50 anti-proliferation activity [2] of 5.2 ± 1.3 µg/mL (≈ 18.5 µM).
